# Experimental data taken from ChEMBL document CHEMBL4152208, “Synthesis and structure-activity relationships of quinolinone and quinoline-based P2X7 receptor antagonists and their anti-sphere formation activities in glioblastoma cells” (Eur J Med Chem, 2018).
# Active and inactive are the calls of the source. The calls are words filed in the database; no cut-off is given here.
# Tests used:
# [1] = biological target: T1, P2X purinoceptor 7 (Homo sapiens) (UniProt Q99572); assay: Antagonist activity at human P2X7 receptor expressed in HEK293 cells assessed as inhibition of BzATP-induced EtBr uptake at 1 uM after 2 hrs by fluorescence assay relative to control; assay type: cell-based
# T1 sequence (whole entry): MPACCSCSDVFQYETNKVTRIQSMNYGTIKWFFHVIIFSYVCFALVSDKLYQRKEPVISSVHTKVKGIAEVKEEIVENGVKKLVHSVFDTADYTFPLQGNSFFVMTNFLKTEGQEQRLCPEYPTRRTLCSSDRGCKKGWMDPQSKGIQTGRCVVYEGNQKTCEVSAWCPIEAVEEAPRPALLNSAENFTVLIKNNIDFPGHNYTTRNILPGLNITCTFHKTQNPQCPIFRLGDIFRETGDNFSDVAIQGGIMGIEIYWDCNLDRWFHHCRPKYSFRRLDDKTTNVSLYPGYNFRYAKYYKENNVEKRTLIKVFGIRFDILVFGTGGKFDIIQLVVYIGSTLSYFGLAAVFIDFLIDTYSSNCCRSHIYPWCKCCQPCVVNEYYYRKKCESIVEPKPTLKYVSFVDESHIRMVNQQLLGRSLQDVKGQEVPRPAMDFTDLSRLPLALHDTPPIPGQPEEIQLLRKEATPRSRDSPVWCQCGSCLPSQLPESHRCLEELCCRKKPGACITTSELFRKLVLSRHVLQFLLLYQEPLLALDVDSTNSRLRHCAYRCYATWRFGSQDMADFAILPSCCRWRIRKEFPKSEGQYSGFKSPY
# [2] = biological target: T2, P2X purinoceptor 4 (Homo sapiens) (UniProt Q99571); assay: Antagonist activity at human P2X4 receptor expressed in 1321N1 cells assessed as inhibition of ATP-induced calcium flux at 1 uM measured for 30 secs at 0.4 secs intervals by Flou-4-AM dye based fluorescence assay relative to control; assay type: cell-based
# T2 sequence (whole entry): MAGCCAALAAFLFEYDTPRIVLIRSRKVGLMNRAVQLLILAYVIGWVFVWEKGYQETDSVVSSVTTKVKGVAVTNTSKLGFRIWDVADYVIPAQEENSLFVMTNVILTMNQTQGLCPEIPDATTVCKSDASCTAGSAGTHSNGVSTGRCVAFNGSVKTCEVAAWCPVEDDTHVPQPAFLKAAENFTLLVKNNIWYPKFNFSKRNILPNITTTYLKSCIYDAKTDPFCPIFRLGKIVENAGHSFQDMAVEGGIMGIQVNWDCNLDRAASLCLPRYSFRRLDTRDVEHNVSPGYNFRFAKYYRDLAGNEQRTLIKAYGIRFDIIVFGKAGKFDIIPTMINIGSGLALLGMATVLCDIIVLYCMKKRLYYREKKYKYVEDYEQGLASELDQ
# Homo sapiens = organism: Homo sapiens; assay: Antiproliferative activity against human TS15-88 cells at 50 uM after 24 hrs by MTS assay; assay type: functional, cell-based
# [3] = Antiproliferative activity against human TS15-88 cells after 24 to 72 hrs by MTS assay; assay type: functional, cell-based
# [4] = Reduction of […] mRNA expression in human TS15-88 cells after 72 hrs by qRT-PCR analysis relative to control; assay type: functional; parameters: scale not given: the % may be the effect or the level left
# [5] = Increase in MYC mRNA expression in human TS15-88 cells after 72 hrs by qRT-PCR analysis relative to control; assay type: functional
# [6] = Cytotoxicity against HEK293 cells expressing human P2X7 receptor assessed as cell survival at 10 uM by MTT assay relative to control; assay type: cell-based; conditions: read-out: Survival
# [7] = Ratio of drug level in zebrafish brain to blood at 10 mg/kg, po administered via gavage measured 0.5 hrs post compound administration by LC-MS/MS analysis; assay type: ADME, organism-based, Danio rerio
# [8] = Equilibrium solubility of the compound in DMSO after 16 hrs; assay type: physicochemical
# [9] = Metabolic stability in rat liver microsomes assessed as parent compound remaining at 1 uM up to 30 mins in presence of NADPH by LC-MS/MS analysis; assay type: ADME, microsome; conditions: read-out: Stability
smiles,measurement,setting,value
O=C(CC12CC3CC(CC(C3)C1)C2)Nc1cccc2nc(Cl)ccc12,inhibition,[1],89%
same,inhibition,[2],4%
same,Activity,Homo sapiens,Active
same,IC50,[3],40 µM
same,Activity,[4],41%
same,Activity,[5],41%
same,viability at 10 µM,[6],98%
same,Kp at 0.5 h,[7],2.03
same,solubility at 16 h,[8],15.6 µM
same,"remaining at 0.5 h, 1 µM",[9],0.06%
